The target of one assay is T1, human Y4 receptor (Homo sapiens, UniProt P50391).
T1 construct: expressed in transfected cells
T1 sequence (P50391 whole entry): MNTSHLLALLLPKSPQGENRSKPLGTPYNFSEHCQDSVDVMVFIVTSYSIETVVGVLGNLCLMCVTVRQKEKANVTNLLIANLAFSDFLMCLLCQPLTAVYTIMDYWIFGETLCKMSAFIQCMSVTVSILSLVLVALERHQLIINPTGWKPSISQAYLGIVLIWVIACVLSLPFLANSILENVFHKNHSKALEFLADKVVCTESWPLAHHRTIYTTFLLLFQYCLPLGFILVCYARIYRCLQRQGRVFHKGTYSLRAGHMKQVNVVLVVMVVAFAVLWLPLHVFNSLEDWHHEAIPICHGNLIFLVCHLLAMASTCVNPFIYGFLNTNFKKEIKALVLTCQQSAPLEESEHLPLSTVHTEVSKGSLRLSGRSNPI
Kind of assay: NPY4 cAMP HTRF Agonist Assay (inhibitory cAMP assay, Gi activation by Y4 agonism). The class given is cell-based. Conditions: TABLE 2, R2 is Phenyl-CN; read-out: hY4 CAMP EC50. The protocol:
NPY4 cAMP HTRF Agonist Assay
The functionality of the compound at Y4 receptor was analyzed using a inhibitory cAMP assay (CISBIO, HTRF cAMP kit #62AM4PEC) to measure the Gi activation by Y4 agonism.
The human Y4 stable CHO clonal cells were maintained in culture medium (F-12 containing 10% Fetal Bovine Serum, […] GENETICIN®, […] Zeocin). Before the experiment, 5 μL of 1 uM Forskolin (Sigma, # F6886) and 100 uM IBMX (Sigma, # I5879) in PBS buffer were added into 384-well plates (PE, Proxi-plate) that were pre-dotted with 100 nL compounds. The cells were removed from the flasks by Cellstripper, counted and adjusted to 1.0×10^6 cells/mL in PBS buffer, and added 5 μL/well (5000 cells/well) into the above 384-well plates. The cells were then covered and incubated for 30 minutes at room temperature. After incubation, 5 μL/well of D2-conjugate in HTRF lysis buffer was first added, followed by adding 5 μL/well of anti-cAMP Cryptate in HTRF lysis buffer. The plates were incubated for another 1 hour at room temperature and read on the EnVision Multilabel Plate Reader.
Compounds described herein were tested in the above assay.
(In general: In TR-FRET formats the signal depends on donor and acceptor labels being close together.)
Usually EC50 stands for the concentration needed to bring the measured effect to its halfway point. For the compound `CC(C)(O)c1cccc(-c2ccnc(N[C@@H]3CCCC[C@H]3N[C@H]3CCCN(c4ccc(C#N)cc4)C3)c2)c1` [Example 260], the EC50 came to 11 nM.
Still for that read-out and setting: for `CCOC(=O)Nc1cccc(-c2cnc(N[C@@H]3CCCC[C@H]3N[C@H]3CCCN(c4ccc(C#N)cc4)C3)o2)c1` [Example 205] the value was 0.2 nM; for `COC(=O)Nc1cccc(-c2cnc(N[C@@H]3CCCC[C@H]3N[C@H]3CCCN(c4ccc(C#N)cc4)C3)o2)c1` [Example 282], 1 nM.
`Cc1ccc(-c2ccnc(N[C@@H]3CCCC[C@H]3N[C@H]3CCCN(c4ccc(C#N)cc4)C3)c2)cc1` [Example 271]: the half-maximal effective concentration (EC50) turned out to be 461 nM.
For `N#Cc1ccc(N2CCC[C@H](N[C@@H]3CCCC[C@H]3Nc3cc(-c4ccccn4)ccn3)C2)cc1` [Example 270], the EC50 was found to be 468 nM.
Take `CC(C)(O)c1cccc(-c2cnc(N[C@@H]3CCCC[C@H]3N[C@H]3CCCN(c4ccc(C#N)cc4)C3)o2)c1` [Example 207]: the 50% effective concentration (EC50) amounted to 39 nM.
On the same count and under the same terms, for `N#Cc1ccc(N2CCC[C@H](N[C@@H]3CCCC[C@H]3Nc3cc(-c4ccc5nccnc5c4)ccn3)C2)cc1` [Example 221] the value was 77 nM.

Staying with this assay, now noted: TABLE 3, R2 is Phenyl-NO2; read-out: hY4 CAMP EC50.
Regarding `C[C@]1(N[C@@H]2CCCC[C@H]2Nc2ncc(-c3ccc(OC(F)(F)F)cc3)o2)CCCN(c2ccc([N+](=O)[O-])cc2)C1` [Example 287], the EC50 came out at 1 nM.

The assay is the same for the next values; noted with them: TABLE 4, R2 is Pyridinyl-CN; read-out: hY4 CAMP EC50.
With `N#Cc1ccc(N2C[C@@H]3C[C@H](N[C@@H]4CCCC[C@H]4Nc4ncc(-c5cccc(C(N)=O)c5)o4)[C@H]2C3)cn1` [Example 303], the EC50 was found to be 221 nM.
The same measure, in the same setting: the value for `N#Cc1ccc(N2CCC[C@H](N[C@@H]3CCCC[C@H]3Nc3nccc(-c4ccccc4)n3)C2)cn1` [Example 308] was 135 nM.

Staying with this assay, now noted: TABLE 7, R2 is Pyridinyl-oxadiazole-CH3; read-out: hY4 CAMP EC50.
For the compound `Cc1nc(-c2ccc(N3CCC[C@H](N[C@@H]4CCCC[C@H]4Nc4ncc(-c5cccc(C(N)=O)c5)o4)C3)nc2)no1` [Example 396], the EC50 was 0.2 nM.
For the compound `Cc1nc(-c2ccc(N3CCC[C@](C)(N[C@@H]4CCCC[C@H]4Nc4ncc(-c5cccc(C(N)=O)c5)o4)C3)cn2)no1` [Example 389], the EC50 stood at 13 nM.
With `Cc1nc(-c2ccc(N3CCC[C@H](N[C@@H]4CCCC[C@H]4Nc4ncc(-c5cccc(C(N)=O)c5)o4)C3)cn2)no1` [Example 397], the EC50 stood at 3 nM.
With `Cc1nc(-c2ncc(N3CCC[C@H](N[C@@H]4CCCC[C@H]4Nc4ncc(-c5cccc(C(N)=O)c5)o4)C3)cn2)no1` [Example 390], the EC50 worked out at 3 nM.

The assay is the same for the next values; noted with them: human Y4 receptor, cAMP; read-out: hY4 CAMP EC50.
As for `COC(=O)Nc1cccc(-c2cnc(N[C@@H]3CCCC[C@H]3N[C@H]3CCCN(c4cnc(-c5noc(C)n5)nc4)C3)o2)c1` [Example 466], the EC50 was determined as 1 nM.
The same measure, in the same setting: the value for `FC(F)(F)Oc1ccc(-c2cnc(N[C@@H]3CCCC[C@H]3N[C@H]3CCCN(c4ccc5ncnn5c4)C3)o2)cc1` [Example 482] was 107 nM; that for `FC(F)(F)c1ncc(N2CCC[C@H](N[C@@H]3CCCC[C@H]3Nc3ncc(-c4ccccc4)o3)C2)cn1` [Example 406] was 66 nM; that for `COC(=O)Nc1cccc(-c2ccnc(N[C@@H]3CCCC[C@H]3N[C@H]3CCCN(c4ccc(-c5cncnc5)cc4)C3)c2)c1` [Example 515] was 11 nM.
Still for that read-out and setting: the value for `COC(=O)Nc1cccc(-c2ccnc(N[C@@H]3CCCC[C@H]3N[C@H]3CCCN(c4ccc(-c5noc(C)n5)cc4)C3)c2)c1` [Example 339] was 0.1 nM; that for `N#Cc1cnc(N2CCC[C@H](N[C@@H]3CCCC[C@H]3Nc3cc(-c4cccc(C(N)=O)c4)ccn3)C2)cn1` [Example 477] was 775 nM.
Consider `COC(=O)Nc1cccc(-c2ccnc(N[C@@H]3CCCC[C@H]3N[C@H]3CCCN(c4ccc(-c5cccnc5)cc4)C3)c2)c1` [Example 514], for which the half-maximal effective concentration (EC50) was found to be 4 nM.
On the same count and under the same terms, for `COc1ccc(-c2ccnc(N[C@@H]3CCCC[C@H]3NC3CCCN(c4ccc(-c5nnc(C)o5)cc4)C3)c2)cc1` (stereo partly drawn) [Example 366] the value was 323 nM.
`N#Cc1cc(N2C[C@@H]3C[C@H](N[C@@H]4CCCC[C@H]4Nc4ncc(-c5ccc(OC(F)(F)F)cc5)o4)[C@H]2C3)ncn1` [Example 444]: the 50% effective concentration (EC50) turned out to be 378 nM.

Still in this assay, the particulars now being: human Y4 stable CHO clonal cells, forskolin + IBMX; read-out: NPY4 cAMP HTRF Agonist Assay EC50.
On to `Cc1nnc(-c2ccc(N3CCC[C@H](N[C@@H]4CCCC[C@H]4Nc4ncc(-c5ccccc5)o4)C3)cc2)o1` [Example 83, (1R,2R)—N1-((S)-1-(4-(5-Methyl-1,3,4-oxadiazol-2-yl)phenyl)piperidin-3-yl)-N2-(5-phenyloxazol-2-yl)cyclohexane-1,2-diamine bis-trifluoroacetate], for which the EC50 came to 9 nM.
Turning to `FC(F)(F)c1ccc(N2CCC[C@H](N[C@@H]3CCCC[C@H]3Nc3cc(-c4ccccc4)ccn3)C2)cc1` [Example 75, (1R,2R)—N1-(4-Phenylpyridin-2-yl)-N2-((S)-1-(4-(trifluoromethyl)phenyl)piperidin-3-yl)cyclohexane-1,2-diamine], the EC50 is 252 nM.
On the same count and under the same terms, the value for `O=[N+]([O-])c1ccc(N2CCC[C@H](N[C@@H]3CCCC[C@H]3Nc3nc4ccccc4o3)C2)cc1` [Example 3, (1R,2R)—N1-(Benzo[d]oxazol-2-yl)-N2-((S)-1-(4-nitrophenyl)piperidin-3-yl)cyclohexane-1,2-diamine] was 69 nM.
As to `O=[N+]([O-])c1ccc(N2CCC[C@H](N[C@@H]3CCCC[C@H]3Nc3cc(-c4ccccc4)ccn3)C2)cc1` [Example 25, (1R,2R)—N1-((S)-1-(4-Nitrophenyl)piperidin-3-yl)-N2-(4-phenylpyridin-2-yl)cyclohexane-1,2-diamine], the concentration giving a half-maximal response (EC50) is 14 nM.
Turning to `O=[N+]([O-])c1ccc(N2CCC[C@H](N[C@@H]3CCCC[C@H]3Nc3nccc(-c4ccccc4)n3)C2)cc1` [Example 32, (1R,2R)—N1-((S)-1-(4-Nitrophenyl)piperidin-3-yl)-N2-(4-phenylpyrimidin-2-yl)cyclohexane-1,2-diamine], the EC50 turned out to be 60 nM.
On to `COc1cccc(-c2ccnc(N[C@@H]3CCCC[C@H]3N[C@H]3CCCN(c4ccc([N+](=O)[O-])cc4)C3)n2)c1` [Example 30, (1R,2R)—N1-(4-(3-Methoxyphenyl)pyrimidin-2-yl)-N2-((S)-1-(4-nitrophenyl)piperidin-3-yl)cyclohexane-1,2-diamine], for which the EC50 turned out to be 203 nM.

Staying with this assay, now noted: second TABLE 1, R2 is Phenyl-CF3; read-out: hY4 CAMP EC50.
For the compound `CC(C)(C)NC(=O)c1cccc(-c2ccnc(N[C@@H]3CCCC[C@H]3N[C@H]3CCCN(c4ccc(C(F)(F)F)cc4)C3)c2)c1` [Example 128], the EC50 was 227 nM.
Turning to `FC(F)(F)Oc1ccc(-c2cnc(N[C@@H]3CCCC[C@H]3N[C@H]3C[C@@H]4C[C@H]3N(c3ccc(C(F)(F)F)cc3)C4)o2)cc1` [Example 181], the EC50 is 126 nM.
On the same count and under the same terms, for `CNCc1cccc(-c2ccnc(N[C@@H]3CCCC[C@H]3N[C@H]3CCCN(c4ccc(C(F)(F)F)cc4)C3)c2)c1` [Example 144] the value was 26 nM.
The same measure, in the same setting: for `CC(C)(C)c1cccc(-c2ccnc(N[C@@H]3CCCC[C@H]3N[C@H]3CCCN(c4ccc(C(F)(F)F)cc4)C3)c2)c1` [Example 155] the value was 235 nM; for `Cn1cc(-c2ccnc(N[C@@H]3CCCC[C@H]3N[C@H]3CCCN(c4ccc(C(F)(F)F)cc4)C3)c2)cn1` [Example 188], 1040 nM; for `OCCc1cccc(-c2ccnc(N[C@@H]3CCCC[C@H]3N[C@H]3CCCN(c4ccc(C(F)(F)F)cc4)C3)c2)c1` [Example 149], 30 nM.
Same read-out and setting: for `OCCCC#Cc1ccnc(N[C@@H]2CCCC[C@H]2N[C@H]2CCCN(c3ccc(C(F)(F)F)cc3)C2)c1` [Example 166] the value was 17 nM.

(Values after US8815909B2, “Diaminocyclohexane compounds and uses thereof” (Bristol-Myers Squibb Company, priority 2011, dated 2014).)
